Results from patent publication US20230233569A1 (Revolution Medicines, Inc., priority 2020, published 2023).
pEC50, pIC50: −log10 of the molar value.

How the values were obtained:
[1] = test system: AsPC-1 (K-Ras G12D); experiment: Potency assay: pERK; assay type: cell-based; conditions: Homo sapiens, ASPC1, read-out: pERK EC50
[2] = test system: AsPC-1 (K-Ras G12D); experiment: CellTiter-Glo cell viability assay; assay type: cell-based; conditions: Homo sapiens, ASPC1, 120 h, read-out: AsPC-1 Cell Viability assay data IC50, K-Ras G12D, 5-day treatment
Outline: (§1)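 Compounds dispensed directly onto seeded AsPC-1 (K-Ras G12D) or NCI-H358 (K-Ras G12C) cells; CellTiter-Glo luminescence read on day 5 after ~30 min equilibration to room temperature. Signal normalized to DMSO average (%) and fit by four-parameter logistic.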

[3] = test system: NCI-H358 (K-Ras G12C); experiment: CellTiter-Glo cell viability assay; assay type: cell-based; conditions: Homo sapiens, NCI-H358, 120 h, read-out: H358 Cell Viability assay data IC50, K-Ras G12C, 5-day treatment
Outline: as §1

[4] = biological target: KRAS G12D (Homo sapiens, UniProt P01116+P62937, G12D); experiment: Ras-Raf disruption / FRET / MOA assay (BRAF RBD); assay type: biochemical; conditions: KRAS G12D FRET data IC50, Ras-Raf disruption, with Cyclophilin A
KRAS G12D, sequence (P01116 1-169 isoform P01116-2 G12D limits assumed): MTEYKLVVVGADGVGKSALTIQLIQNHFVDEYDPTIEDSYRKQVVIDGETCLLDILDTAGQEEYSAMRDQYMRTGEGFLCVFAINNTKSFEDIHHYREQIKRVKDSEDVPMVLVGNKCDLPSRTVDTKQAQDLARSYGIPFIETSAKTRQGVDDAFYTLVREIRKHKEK
KRAS G12D, sequence (P62937 whole entry): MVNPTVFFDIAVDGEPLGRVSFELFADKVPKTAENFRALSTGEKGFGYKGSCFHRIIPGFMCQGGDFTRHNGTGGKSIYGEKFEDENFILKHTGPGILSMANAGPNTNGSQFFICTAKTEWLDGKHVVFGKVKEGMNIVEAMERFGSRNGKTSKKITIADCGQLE
Outline: (§2)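 TR-FRET in 25 mM HEPES pH 7.3, 100 mM NaCl, 5 mM MgCl2, 0.1% BSA, 0.002% Tween20 with 25 μM Cyclophilin A, 12.5 nM His6-Ras-GMPPNP, 50 nM GST-BRAF RBD; compound 10-point 3-fold series from 30 μM. After 3 h at 25 °C, Eu anti-His/APC anti-GST added for 1.5 h; IC50 from ratio decrease versus DMSO.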

[5] = biological target: KRAS G12S (Homo sapiens, UniProt P01116+P62937, G12S); experiment: Ras-Raf disruption / FRET / MOA assay (BRAF RBD); assay type: biochemical; conditions: KRAS G12S FRET data IC50, Ras-Raf disruption, with Cyclophilin A
KRAS G12S, sequence (P01116 1-169 isoform P01116-2 G12S limits assumed): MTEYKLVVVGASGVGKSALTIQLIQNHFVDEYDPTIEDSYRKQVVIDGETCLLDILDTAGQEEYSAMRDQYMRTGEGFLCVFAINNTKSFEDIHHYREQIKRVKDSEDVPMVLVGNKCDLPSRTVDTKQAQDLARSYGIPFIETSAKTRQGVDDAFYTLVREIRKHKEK
KRAS G12S, sequence (P62937 whole entry): as the sequence (P62937 whole entry) above
Outline: as §2

[6] = biological target: KRAS G12V (Homo sapiens, UniProt P01116+P62937, G12V); experiment: Ras-Raf disruption / FRET / MOA assay (BRAF RBD); assay type: biochemical; conditions: KRAS G12V FRET data IC50, Ras-Raf disruption, with Cyclophilin A
KRAS G12V, sequence (P01116 1-169 isoform P01116-2 G12V limits assumed): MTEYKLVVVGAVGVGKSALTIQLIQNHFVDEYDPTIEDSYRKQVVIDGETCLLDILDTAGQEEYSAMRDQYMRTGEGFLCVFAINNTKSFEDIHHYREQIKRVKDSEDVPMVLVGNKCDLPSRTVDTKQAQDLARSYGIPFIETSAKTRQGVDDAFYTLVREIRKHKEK
KRAS G12V, sequence (P62937 whole entry): as the sequence (P62937 whole entry) above
Outline: as §2

[7] = biological target: KRAS G13C (Homo sapiens, UniProt P01116+P62937, G13C); experiment: Ras-Raf disruption / FRET / MOA assay (BRAF RBD); assay type: biochemical; conditions: KRAS G13C FRET data IC50, Ras-Raf disruption, with Cyclophilin A
KRAS G13C, sequence (P01116 1-169 isoform P01116-2 G13C limits assumed): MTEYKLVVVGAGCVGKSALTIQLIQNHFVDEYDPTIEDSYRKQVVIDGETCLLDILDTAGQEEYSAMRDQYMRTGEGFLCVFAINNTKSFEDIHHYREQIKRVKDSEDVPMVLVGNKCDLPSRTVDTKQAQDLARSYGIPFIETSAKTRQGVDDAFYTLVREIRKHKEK
KRAS G13C, sequence (P62937 whole entry): as the sequence (P62937 whole entry) above
Outline: as §2

[8] = biological target: KRAS G13D (Homo sapiens, UniProt P01116+P62937, G13D); experiment: Ras-Raf disruption / FRET / MOA assay (BRAF RBD); assay type: biochemical; conditions: KRAS G13D FRET data IC50, Ras-Raf disruption, with Cyclophilin A
KRAS G13D, sequence (P01116 1-169 isoform P01116-2 G13D limits assumed): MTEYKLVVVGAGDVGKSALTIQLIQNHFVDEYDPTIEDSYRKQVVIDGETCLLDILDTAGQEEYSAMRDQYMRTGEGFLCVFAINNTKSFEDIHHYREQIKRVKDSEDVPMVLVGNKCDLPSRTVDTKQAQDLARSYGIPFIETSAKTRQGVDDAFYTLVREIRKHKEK
KRAS G13D, sequence (P62937 whole entry): as the sequence (P62937 whole entry) above
Outline: as §2

[9] = biological target: KRAS Q61H (Homo sapiens, UniProt P01116+P62937, Q61H); experiment: Ras-Raf disruption / FRET / MOA assay (BRAF RBD); assay type: biochemical
KRAS Q61H, sequence (P01116 1-169 isoform P01116-2 Q61H limits assumed): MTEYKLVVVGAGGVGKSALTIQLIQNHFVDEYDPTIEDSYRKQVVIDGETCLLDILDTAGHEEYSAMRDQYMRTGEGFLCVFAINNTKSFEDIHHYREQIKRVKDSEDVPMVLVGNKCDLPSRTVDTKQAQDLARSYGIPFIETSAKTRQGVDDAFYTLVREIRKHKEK
KRAS Q61H, sequence (P62937 whole entry): as the sequence (P62937 whole entry) above
Outline: as §2

[10] = biological target: KRAS WT (Homo sapiens, UniProt P01116+P62937); experiment: Ras-Raf disruption / FRET / MOA assay (BRAF RBD); assay type: biochemical; conditions: KRAS WT FRET data IC50, Ras-Raf disruption, with Cyclophilin A
KRAS WT, sequence (P01116 1-169 isoform P01116-2 limits assumed): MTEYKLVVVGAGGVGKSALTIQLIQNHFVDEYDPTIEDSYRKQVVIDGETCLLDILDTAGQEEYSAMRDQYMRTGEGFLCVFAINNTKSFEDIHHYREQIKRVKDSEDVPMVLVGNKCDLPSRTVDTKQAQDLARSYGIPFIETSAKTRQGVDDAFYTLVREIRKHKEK
KRAS WT, sequence (P62937 whole entry): as the sequence (P62937 whole entry) above
Outline: as §2

[11] = biological target: NRAS G12C (Homo sapiens, UniProt P01111+P62937, G12C); experiment: Ras-Raf disruption / FRET / MOA assay (BRAF RBD); assay type: biochemical; conditions: NRAS G12C FRET data IC50, NRAS G12C
NRAS G12C, sequence (P01111 whole entry G12C): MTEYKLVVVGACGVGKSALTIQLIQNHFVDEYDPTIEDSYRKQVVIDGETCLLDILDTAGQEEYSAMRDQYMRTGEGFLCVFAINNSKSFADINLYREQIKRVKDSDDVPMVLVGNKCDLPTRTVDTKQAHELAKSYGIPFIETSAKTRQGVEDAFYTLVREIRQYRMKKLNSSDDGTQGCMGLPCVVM
NRAS G12C, sequence (P62937 whole entry): as the sequence (P62937 whole entry) above
Outline: as §2

[12] = biological target: NRAS Q61K (Homo sapiens, UniProt P01111+P62937, Q61K); experiment: Ras-Raf disruption / FRET / MOA assay (BRAF RBD); assay type: biochemical
NRAS Q61K, sequence (P01111 whole entry Q61K): as the sequence (P01111 whole entry G12C) above, with C12G, Q61K counted along it
NRAS Q61K, sequence (P62937 whole entry): as the sequence (P62937 whole entry) above
Outline: as §2

[13] = biological target: NRAS Q61R (Homo sapiens, UniProt P01111+P62937, Q61R); experiment: Ras-Raf disruption / FRET / MOA assay (BRAF RBD); assay type: biochemical
NRAS Q61R, sequence (P01111 whole entry Q61R): as the sequence (P01111 whole entry G12C) above, with C12G, Q61R counted along it
NRAS Q61R, sequence (P62937 whole entry): as the sequence (P62937 whole entry) above
Outline: as §2

[14] = biological target: NRAS WT (Homo sapiens, UniProt P01111+P62937); experiment: Ras-Raf disruption / FRET / MOA assay (BRAF RBD); assay type: biochemical
NRAS WT, sequence (P01111 whole entry): as the sequence (P01111 whole entry G12C) above, with C12G counted along it
NRAS WT, sequence (P62937 whole entry): as the sequence (P62937 whole entry) above
Outline: as §2

[15] = biological target: KRAS G12C (Homo sapiens, UniProt P01116+P62937, G12C); experiment: Ras-Raf disruption / FRET / MOA assay (BRAF RBD); assay type: biochemical; conditions: KRAS G12C FRET data IC50, Ras-Raf disruption, with Cyclophilin A
KRAS G12C, sequence (P01116 1-169 isoform P01116-2 G12C limits assumed): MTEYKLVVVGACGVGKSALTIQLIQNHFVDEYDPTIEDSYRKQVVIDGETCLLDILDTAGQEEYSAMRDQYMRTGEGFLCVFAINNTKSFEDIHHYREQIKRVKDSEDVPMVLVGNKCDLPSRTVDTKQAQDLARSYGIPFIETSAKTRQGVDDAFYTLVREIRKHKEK
KRAS G12C, sequence (P62937 whole entry): as the sequence (P62937 whole entry) above
Outline: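 His6-K-Ras G12C-GMPPNP (12.5 nM), GST-BRAF RBD (50 nM) and tagless Cyclophilin A (25 μM) incubated 3 h at 25 °C with compound (10-point 3-fold series from 30 μM), pH 7.3 HEPES buffer. Anti-His Eu/anti-GST APC added for 1.5 h; decreased TR-FRET ratio vs DMSO gives IC50.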

| SMILES | pEC50 [1] | pIC50 [2] | pIC50 [3] | pIC50 [4] | pIC50 [5] | pIC50 [6] | pIC50 [7] | pIC50 [8] | pIC50 [9] | pIC50 [10] | pIC50 [11] | pIC50 [12] | pIC50 [13] | pIC50 [14] | pIC50 [15] |
| --- | --- | --- | --- | --- | --- | --- | --- | --- | --- | --- | --- | --- | --- | --- | --- |
| CCn1c(-c2cccnc2[C@H](C)OC)c2c3cc(ccc31)-c1cc(O)cc(c1)C[C@H](NC(=O)[C@H](C(C)C)N(C)C(=O)CNC(=O)[C@@H]1N[C@@H]1C1CC1)C(=O)N1CCC[C@H](N1)C(=O)OCC(C)(C)C2 [Example 141] | > 5.30 | 6.00 to 7.00 | 6.00 to 7.00 | 7.00 to 8.00 | 7.00 to 8.00 | 7.00 to 8.00 | 7.00 to 8.00 | 6.00 to 7.00 | 7.00 to 8.00 | 7.00 to 8.00 | 7.00 to 8.00 | 6.00 to 7.00 | 6.00 to 7.00 | 7.00 to 8.00 | 7.00 to 8.00 |
| CCn1c(-c2cccnc2[C@H](C)OC)c2c3cc(ccc31)-c1cc(O)cc(c1)C[C@H](NC(=O)[C@H](C(C)C)N(C)C(=O)CN(C)C(=O)[C@H]1CN1Cc1ccccc1CO)C(=O)N1CCC[C@H](N1)C(=O)OCC(C)(C)C2 (stereo partly drawn) [Example 156] | > 5.30 | 6.00 to 7.00 | > 8.00 | 6.00 to 7.00 | 7.00 to 8.00 | 7.00 to 8.00 | 7.00 to 8.00 | 6.00 to 7.00 |  | 7.00 to 8.00 | > 8.00 |  |  |  | > 8.00 |
| CCn1c(-c2cccnc2[C@H](C)OC)c2c3cc(ccc31)-c1cc(O)cc(c1)C[C@H](NC(=O)[C@H](C(C)C)N(C)C(=O)CN(C)C(=O)[C@@H]1CN1CCOC)C(=O)N1CCC[C@H](N1)C(=O)OCC(C)(C)C2 (stereo partly drawn) [Example 160] | > 5.30 | 6.00 to 7.00 | > 8.00 | 6.00 to 7.00 | 7.00 to 8.00 | 7.00 to 8.00 | 7.00 to 8.00 | 6.00 to 7.00 |  | 7.00 to 8.00 | > 8.00 |  |  |  | 7.00 to 8.00 |
| CCn1c(-c2cccnc2[C@H](C)OC)c2c3cc(ccc31)-c1cc(O)cc(c1)C[C@H](NC(=O)[C@H](C(C)C)N(C)C(=O)CN(C)C(=O)[C@H]1CN1CCCOC)C(=O)N1CCC[C@H](N1)C(=O)OCC(C)(C)C2 (stereo partly drawn) [Example 201] | > 5.30 | 6.00 to 7.00 | > 8.00 | 6.00 to 7.00 | 7.00 to 8.00 | 7.00 to 8.00 | 7.00 to 8.00 | 6.00 to 7.00 |  | 7.00 to 8.00 | > 8.00 |  |  |  | > 8.00 |
